Assays:
[1] = tested on: H1 ES cells; assay: Media component test: survival and proliferation of dissociated ES cells; assay type: cell-based, human; settings: for requirement for short-term survival (24 hours) and proliferation (82 hours) of human ES cells: factor removed from TeSR, FIG. 6A; for initial survival of human ES cells: added to defined medium, FIG. 6F; for cell survival and proliferation: FIG. 4A-B
Method: (§1) (A) Dissociated H1 ES cells were plated into different media (Table 1) on […]-coated plates, and cell survival was measured 24 hours after plating. […] (B) The same ES cells from FIG. […] (C) Dissociated cells were plated in three different media, and initial survival was measured 22 hours after plating (blue column) Proliferation was measured 129 hours after plating (red column) The three media were TESR™, TESR without L-ascorbic acid (TESR-LAA) and a simplified medium containing DMEM/F 12, NaHCO3 LAA, insulin and FGF2 (*p<0.05, n=3). (D) H1 cells were maintained in defined media (DMEM/F12, NaHCO3, Insulin, FGF2 and LAA) for multiple passages with or without selenium. 150,000 starting cells were seeded in each passage on day 0, 4 and 7. (E) Human H1 cells were grown in DMEM/F12, NaHCO3, Insulin, FGF2, LAA and selenium with or without NODAL for four passages, and OCT4 expression was analyzed by FACS. Green peak: anti-OCT4 primary antibody with Alexa-488 secondary antibody; unshaded peak: mouse IgG control. (F) Transferrin was tested with cloning assay in defined media (DMEM/F12, NaHCO3, Insulin, FGF2, LAA, and Selenium); human foreskin iPS cells (Yu et al., Science 318:1917-1920 (2007)) were used in this particular experiment with ROCK inhibitor HA100 (10 μM) in hypoxic conditions (*p<0.05, n=3). […] (G) E8 medium (Table 1), TESR™ and conditioned medium (CM) were tested by cloning assay with HA100 (*p<0.05, n=3). Hypoxia conditions (5% O2 and 10% CO2, red column) and normoxic conditions (5% CO2, blue column) were used in the test (*p<0.05, n=3). […] (H) E8 medium and TESR™ were used to culture ES and iPS cells for long-term expansion, and the proliferation dynamics was recorded in the first seven passages. 200,000 H1 and human foreskin iPS cells (Yu et al., Science 324:797-801 (2009)) were plated in each passage in E8 and TESR™ media in hypoxic conditions.
H1 cells were maintained in specific media for 5 days (2 passages), and RNA was purified for qRT-PCR to detect NANOG expression relative to GAPDH. […] A variety of basic media were used to make growth media with additional components (insulin, FGF2, LAA, Selenium, and NaHCO3). Dissociated H1 cells were plated in different media on […]-coated plates. […] Green peak: OCT4 antibody with Alexa-488 conjugated secondary antibody; Grey peak: mouse IgG control. […] Cells were treated with HA100 (10 μM) and Y27632) (10 μM) for 24 hours, and with blebbistatin (10 μM) for 4 hours (*p<0.05, n=3).

[2] = tested on: H1 cells; assay: Cloning assay; assay type: cell-based, human
Method: To determine how the various vitronectin variants affect cloning efficiency, the vitronectin polypeptide variants were tested in a cloning assay, essentially as described by Chen et al, Cell Stem Cell 7:240-248 (2010), incorporated herein by reference as if set forth in its entirety. Briefly, triplicates for each substrate were prepared in a 12-well plate. Prior to the addition of cells, 500 μL medium was added to each well. Cells were detached from their culture plate and dissociated with TrypLE for 5 minutes or until fully detached. TrypLE was neutralized with equal volumes of basic media, and the cells were counted, washed and then diluted to 5000 cells/mL. 100 μL of this cell suspension (500 cells) was added to each well. Plates were then incubated at 37° C., 5% O2 and 10% CO2 and the medium was changed every 1-2 day(s). After 5-6 days, colonies were stained with an APS kit (Vector Lab) following the manufacturer's instruction and counted.

[3] = tested on: human ES and iPS cells; assay: Long-term expansion of ES and iPS cells in defined medium; assay type: cell-based; settings: for long-term culture stability of human ES and iPS cells: NODAL 100 ng/ml or TGFβ 2 ng/ml added to simple medium
Method: as §1, with “FIG. 5A were cultured in the same media with daily media change, and proliferation was measured 96 hours after plating.” for “FIG.”

[4] = tested on: NANOG expression in H1 cells; assay: NANOG expression by qRT-PCR relative to GAPDH; assay type: cell-based, human; settings: NODAL 100 ng/ml or TGFβ 2 ng/ml in defined media; FIG. 6B
Method: FIG. 6 illustrates media components supporting human pluripotent stem cells. […] When those factors were removed, H1 ES cells survived (24 hours, blue columns) and proliferated (82 hours, red columns) as well as in TeSR. […] H1 cells were maintained in specific media for 5 days (2 passages), and RNA was purified for qRT-PCR to detect NANOG expression relative to GAPDH. (C) DMEM/F12 basic media is among the best basic media in the screen that supports human ES cell survival and proliferation. A variety of basic media were used to make growth media with additional components (insulin, FGF2, LAA, Selenium, and NaHCO3). Dissociated H1 cells were plated in different media on MATRIGEL-coated plates. Cell survival was measured at 24 hours (blue column) and cell proliferation at 52 hours (red column) (D) Defined media (DMEM/F12, insulin, FGF2, LAA, and Selenium) with NODAL supports pluripotency of human iPS cells. Flow cytometry detected high expression of pluripotency marker OCT4 in two iPS cell lines. Green peak: OCT4 antibody with Alexa-488 conjugated secondary antibody; Grey peak: mouse IgG control. Similar results were also obtained from H1 and H9 ES cells maintained in the same media. (E) Normal karyotypes were maintained after long-term passage for those iPS cells shown above. […] High OCT4 expression was detected in H1 and iPS cells. […]

[5] = tested on: human foreskin iPS cells; assay: Cloning assay in defined media with transferrin; assay type: cell-based; settings: defined media with HA100 (10 μM), hypoxic conditions; FIG. 4F
Method: FIG. 4 presents media components supporting human ES cell survival and proliferation. (A) Dissociated H1 ES cells were plated into different media (Table 1) on MATRIGEL-coated plates, and cell survival was measured 24 hours after plating. […] (B) The same ES cells from FIG. 5A were cultured in the same media with daily media change, and proliferation was measured 96 hours after plating. […] (C) Dissociated cells were plated in three different media, and initial survival was measured 22 hours after plating (blue column) Proliferation was measured 129 hours after plating (red column) The three media were […] without L-ascorbic acid (TESR-LAA) and a simplified medium containing DMEM/F 12, NaHCO3 LAA, insulin and FGF2 (*p<0.05, n=3). (D) H1 cells were maintained in defined media (DMEM/F12, NaHCO3, Insulin, FGF2 and LAA) for multiple passages with or without selenium. 150,000 starting cells were seeded in each passage on day 0, 4 and 7. (E) Human H1 cells were grown in DMEM/F12, NaHCO3, Insulin, FGF2, LAA and selenium with or without NODAL for four passages, and OCT4 expression was analyzed by FACS. Green peak: anti-OCT4 primary antibody with Alexa-488 secondary antibody; unshaded peak: mouse IgG control. […] (H) E8 medium and […] were used to culture ES and iPS cells for long-term expansion, and the proliferation dynamics was recorded in the first seven passages. […]

[6] = added to defined medium, FIG. 6G
[7] = TESR components in absence of BSA and BME

With `NCCCC(=O)O` [GABA] the “requirement for short-term survival (24 hours) and proliferation (82 hours) of human ES cells” value (“requirement for short-term survival” for short) [1] was “not required for short-term survival and proliferation”.

With `O=S(=O)(c1cccc2cnccc12)N1CCNCC1` [HA100, reference compound] the “cell survival after dissociation” value ([1]; 10 μM, TeSR, p<0.05, n=3) was “improved cell survival after dissociation”, the “initial survival of human ES cells” value [1] was “improved initial survival” and the cloning efficiency ([2]; E8 media, 10 μM for 24 hours, p<0.05, n=3) was “improved cloning efficiency as efficiently as Y27632 and blebbistatin”. For the same molecule, the cloning efficiency [2, 6] was “supported a high cloning efficiency”.

For `O=C1O[C@H]([C@@H](O)CO)C(O)=C1O` [L-ascorbic acid], the ES cell proliferation ([1]; TESR components in absence of BSA and BME, FIG. 4C) was “promoted ES cell proliferation”.

`[Cl-].[Li+]` [LiCl] was tested, and the “requirement for short-term survival” value [1] was “not required for short-term survival and proliferation”.

For `O=C(O)C1CCCCN1` (stereo not drawn) [Pipecolic acid], the “requirement for short-term survival” value [1] was “not required for short-term survival and proliferation”.

In the case of `C[C@@H](N)[C@H]1CC[C@H](C(=O)Nc2ccncc2)CC1` [Y27632, reference compound], the “initial survival of human ES cells” value [1] is reported as “improved initial survival” and the cloning efficiency [2, 6] is reported as “supported a high cloning efficiency”.

`Cc1ccc2c(c1)C(=O)C1(O)CCN(c3ccccc3)C1=N2` (stereo not drawn) [blebbistatin, reference compound] was tested, and the “initial survival of human ES cells” value [1] was “improved initial survival” and the cloning efficiency [2, 6] was “supported a high cloning efficiency”.

With `[Se]` [selenium] the long-term sustained growth ([3]; defined media, multiple passages, FIG. 4D) was “necessary for long-term sustained growth”.

In the case of FGF2: growth factor medium component, the “cell survival and proliferation” value [1, 7] is reported as “remained important for cell survival and proliferation”.

With Insulin: medium component the “cell survival and proliferation” value [1, 7] was “remained important for cell survival and proliferation”.

With TGFβ the “requirement for short-term survival” value [1] was “not required for short-term survival and proliferation”, the “long-term culture stability of human ES and iPS cells” value [3] was “consistent long-term culture stability” and the NANOG expression levels [4] was “increased NANOG expression levels”.

“transferrin: protein medium component of E8” was tested, and the “cloning efficiency on addition of transferrin” value [5] was “further increased”.

B1: NODAL: growth factor medium component, 100 ng/mL, interchangeable with TGFβ in E8 media (protein, UniProt Q96S42 238-347, looked up)
Nodal homolog: HHLPDRSQLCRKVKFQVDFNLIGWGSWIIYPKQYNAYRCEGECPNPVGEEFHPTNHAYIQSLLKRYQPHRVPSTCCAPVKTKPLSMLYVDNGRVLLDHHKDMIVEECGCL
In the case of B1, the “long-term culture stability of human ES and iPS cells” value [3] is reported as “consistent long-term culture stability” and the NANOG expression levels [4] is reported as “increased NANOG expression levels”.

— patent US9133266B2, “Vitronectin-derived cell culture substrate and uses thereof” (Wisconsin Alumni Research Foundation, priority 2011, dated 2015)
